Laboratory results reported in US20160130257A1, “Macrocyclic proteasome inhibitors” (BROWN UNIVERSITY, priority 2013, published 2016).
pIC50: −log10 of the molar value. Like-named read-outs stand apart in the source and are kept apart here.

Experiments:
mycobacterial proteasome = mycobacterial proteasome (Mycobacterium tuberculosis, UniProt P9WHT9); details: cited from earlier work
[1] = system: non-heme chloroperoxidase SCO0456 gene transcription; assay: Peroxidase gene (SCO0456) transcription assay of proteasome inhibition in S. coelicolor; format: cell-based, Streptomyces coelicolor; details: for transcription of the proteasome-dependent peroxidase gene: S. coelicolor wild-type, RT-PCR / reporter
[2] = target: Mycobacterium tuberculosis 20S peptidase (mtb 20S) (Mycobacterium tuberculosis, UniProt P9WHT9)
[3] = system: 60 different human tumor cell lines; format: cell-based
From the text: The In Vitro Cell Line Screening Project (IVCLSP) is a dedicated service providing direct support to the DTP anticancer drug discovery program. The screen utilizes 60 different human tumor cell lines, representing leukemia, melanoma and cancers of the lung, colon, brain, ovary, breast, prostate, and kidney. IVCLSP is unique because the complexity of a 60 cell line dose response produced by a given compound results in a biological response pattern, which can be utilized in pattern recognition algorithms. Using the pattern recognition algorithms, it is possible to assign a putative mechanism of action to a test compound, or to determine that the response pattern is unique and not similar to that of any of the standard prototype compounds included in the NCI database. The methodology of the in vitro cancer screen is available from the NIH.

Chain of mycobacterial proteasome (P9WHT9 58-291): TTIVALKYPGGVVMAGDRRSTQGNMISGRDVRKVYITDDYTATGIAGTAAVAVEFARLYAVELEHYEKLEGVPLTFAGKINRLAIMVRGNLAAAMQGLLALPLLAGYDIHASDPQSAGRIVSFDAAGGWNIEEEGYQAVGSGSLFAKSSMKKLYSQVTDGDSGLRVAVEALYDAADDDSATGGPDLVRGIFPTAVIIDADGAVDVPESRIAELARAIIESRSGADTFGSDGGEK
Chain of mycobacterial proteasome (P9WHU1 whole entry partner): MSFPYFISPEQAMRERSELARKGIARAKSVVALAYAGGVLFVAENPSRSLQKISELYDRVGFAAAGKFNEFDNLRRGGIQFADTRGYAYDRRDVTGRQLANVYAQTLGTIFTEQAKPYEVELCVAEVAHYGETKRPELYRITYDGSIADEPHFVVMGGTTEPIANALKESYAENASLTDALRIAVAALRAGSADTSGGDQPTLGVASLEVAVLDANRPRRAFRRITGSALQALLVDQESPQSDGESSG
Chain of Mycobacterium tuberculosis 20S peptidase (mtb 20S) (P9WHT9 58-291): as the sequence (P9WHT9 58-291) above
Chain of Mycobacterium tuberculosis 20S peptidase (mtb 20S) (P9WHU1 whole entry partner): as the sequence (P9WHU1 whole entry partner) above

SMILES | inhibition of proteasomes (in words) (mycobacterial proteasome) | pIC50 [2] | selective inhibition of M. tuberculosis proteasome compared to human proteasome (in words, from ratio of IC50 values) [2] | selectivity for the mycobacterial proteasome compared to the human enzyme [2] | selectivity of M. tuberculosis proteasome inhibition compared to Syringolin B [2] | transcription of the proteasome-dependent peroxidase gene [1] | further results
CCCCCCCCC[C@@H](O)CC(=O)N[C@@H](CC(N)=O)C(=O)N[C@@H](CCC(N)=O)C(=O)N[C@H](C=O)CC(C)C [Fellutamide B] | inhibit the mycobacterial proteasomes |  |  |  |  |  | 
CC(C)C1/C=C\C(=O)NCCCCC(NC(=O)C(NC(=O)NC(C(=O)O)C(C)C)C(C)C)C(=O)N1 (stereo not drawn) [Syringolin B] |  |  |  |  |  |  | SCO0456 expression (gel electrophoresis of RNA samples) ([1]; wild-type S. coelicolor, 150 μg/ml, 5 hours, 30° C.): up regulated
COC(=O)C(NC(=O)N1CCCC1C(=O)NC1CCCCNC(=O)C=CC(Cc2c[nH]c3ccccc23)NC1=O)C(C)C (stereo not drawn) [Compound O] |  | 5.57 | selectively inhibits | 13.4 fold | more than 1,900 times |  | 
COC(=O)C(NC(=O)NCC(=O)NC1CCCCNC(=O)C=CC(Cc2c[nH]c3ccccc23)NC1=O)C(C)C (stereo not drawn) [Compound P] |  | 9.94 | selectively inhibits | 45.6 fold | more than 6,500 times | induced transcription of the peroxidase reporter gene | selectivity for M. tuberculosis proteasome than human proteasome [2]: 46 times; toxicity to human cells [3]: not toxic to human cells; killing of cancer cells ([3]; 60 cancer cell lines): does not kill cancer cells; inhibition of cancer cell proteasomes ([3]; inferred from 60 cell line screen): does not inhibit cancer cell proteasomes
CC(C)C[C@H](NC(=O)[C@H](Cc1ccccc1)NC(=O)c1cnccn1)B(O)O [bortezomib, Bortezomib] | inhibit the mycobacterial proteasomes |  |  |  |  | significantly up-regulated | inhibition of proteasomes (in words) (mycobacterial proteasome; listed as Bortezomib): inhibits both bacterial and human proteasomes
